Measured values as given in US10239832B2, “N-(1-hydroxy-3-(pyrrolidinyl)propan-2-yl)pyrrolidine-3-carboxamide derivatives as glucosylceramide synthase inhibitors” (BIOMARIN PHARMACEUTICAL INC., priority 2013, dated 2019).

molecular target: T1, GCS (Canis lupus familiaris, UniProt A0A8I3MXG6); assay: GCS enzymatic assay (MDCK cell lysate, NBD-ceramide to glucosylceramide, LC/MS); type: biochemical, canine; conditions: Table 2; class symbols A, B, C; the table does not say which of the assays; read-out: Data Range (IC50 values)
T1 construct: endogenous in cells; host or cells: MDCK (Madin-Darby canine kidney) cells, whole-cell lysate
T1 sequence (A0A8I3MXG6 1-394): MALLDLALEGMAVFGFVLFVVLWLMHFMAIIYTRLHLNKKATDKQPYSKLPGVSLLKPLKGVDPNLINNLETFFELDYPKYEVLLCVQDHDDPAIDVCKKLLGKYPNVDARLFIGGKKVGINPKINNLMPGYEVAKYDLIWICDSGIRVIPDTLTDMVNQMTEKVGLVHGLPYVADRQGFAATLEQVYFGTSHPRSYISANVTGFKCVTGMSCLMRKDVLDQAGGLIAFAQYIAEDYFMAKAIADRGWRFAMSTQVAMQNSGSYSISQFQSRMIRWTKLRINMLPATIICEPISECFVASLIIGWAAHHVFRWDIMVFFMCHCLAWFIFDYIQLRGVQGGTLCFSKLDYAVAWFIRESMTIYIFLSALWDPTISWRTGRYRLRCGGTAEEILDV
Procedure, shortened: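 IC50 or percent inhibition came from LC/MS/MS (ESI+, MRM) of NBD-ceramide and glucosylceramide, with tolbutamide as internal standard. The reaction used MDCK (canine) cell lysate as the enzyme source and was ended with acetonitrile. Mock wells received 0.1% DMSO.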

SMILES | IC50 [nM]
O=C(N[C@H](CN1CCCC1)[C@H](O)c1ccc2c(c1)OCCO2)[C@@H]1CCN(c2cccc(Oc3ccc(F)cc3)n2)C1 [Compound 119, (R)-N-((1R,2R)-1-(2,3-dihydrobenzo[b][1,4]dioxin-6-yl)-1-hydroxy-3-(pyrrolidin-1-yl)propan-2-yl)-1-(6-(4-fluorophenoxy)pyridin-2-yl)pyrrolidine-3-carboxamide] | 1 to 30
O=C(N[C@H](CN1CCCC1)[C@H](O)c1ccc2c(c1)OCCO2)C1CCN(c2ccc3cc(Cl)ccc3n2)C1 (stereo partly drawn) [Compound 99C, 1-(6-chloroquinolin-2-yl)-N-((1R,2R)-1-(2,3-dihydrobenzo[b][1,4]dioxin-6-yl)-1-hydroxy-3-(pyrrolidin-1-yl)propan-2-yl)pyrrolidine-3-carboxamide] | 1 to 30
O=C(N[C@H](CN1CCCC1)[C@H](O)c1ccc(SC2CC2)c(Cl)c1)[C@@H]1CCN(c2ccc(Cl)cc2)C1 [Compound 145, (R)-N-((1R,2R)-1-(3-chloro-4-(cyclopropylthio)phenyl)-1-hydroxy-3-(pyrrolidin-1-yl)propan-2-yl)-1-(4-chlorophenyl)pyrrolidine-3-carboxamide] | 1 to 30
CN1CCC(Oc2ccc([C@@H](O)[C@@H](CN3CCCC3)NC(=O)[C@@H]3CCN(c4ccc(Cl)cc4)C3)cc2Cl)CC1 [Compound 49, (R)-N-((1R,2R)-1-(3-chloro-4-((1-methylpiperidin-4-yl)oxy)phenyl)-1-hydroxy-3-(pyrrolidin-1-yl)propan-2-yl)-1-(4-chlorophenyl)pyrrolidine-3-carboxamide] | 30 to 100
O=C(N[C@H](CN1CCCC1)[C@H](O)c1ccc2c(c1)OCCO2)[C@H]1CCN(c2ccc3c(c2)CCCC3)C1 [Compound 80H, (S)-N-((1R,2R)-1-(2,3-dihydrobenzo[b][1,4]dioxin-6-yl)-1-hydroxy-3-(pyrrolidin-1-yl)propan-2-yl)-1-(5,6,7,8-tetrahydronaphthalen-2-yl)pyrrolidine-3-carboxamide] | 1 to 30
O=C(N[C@H](CN1CCCC1)[C@H](O)c1ccc2c(c1)OCCO2)[C@@H]1CCN(c2ccc3ccccc3n2)C1 [Compound 72, (R)-N-((1R,2R)-1-(2,3-dihydrobenzo[b][1,4]dioxin-6-yl)-1-hydroxy-3-(pyrrolidin-1-yl)propan-2-yl)-1-(quinolin-2-yl)pyrrolidine-3-carboxamide] | 1 to 30
O=C(N[C@H](CN1CCCC1)[C@H](O)c1ccc2c(c1)OCCO2)C1CCN(c2ccc3ccsc3c2)C1 (stereo partly drawn) [Compound 53C, 1-(benzo[b]thiophen-6-yl)-N-((1R,2R)-1-(2,3-dihydrobenzo[b][1,4]dioxin-6-yl)-1-hydroxy-3-(pyrrolidin-1-yl)propan-2-yl)pyrrolidine-3-carboxamide] | 30 to 100
O=C(N[C@H](CN1CCC1)[C@H](O)c1cc(F)c2c(c1)OCCO2)C1CCN(c2ccc3cc(Cl)ccc3c2)C1 (stereo partly drawn) [Compound 89F, N-((1R,2R)-3-(azetidin-1-yl)-1-(8-fluoro-2,3-dihydrobenzo[b][1,4]dioxin-6-yl)-1-hydroxypropan-2-yl)-1-(6-chloronaphthalen-2-yl)pyrrolidine-3-carboxamide] | 1 to 30
O=C(N[C@H](CN1CCCC1)[C@H](O)c1ccc2c(c1)OCCO2)[C@H]1CCN(c2ccc(Cl)cc2)C1 [Compound 1D, (S)-1-(4-chlorophenyl)-N-((1R,2R)-1-(2,3-dihydrobenzo[b][1,4]dioxin-6-yl)-1-hydroxy-3-(pyrrolidin-1-yl)propan-2-yl)pyrrolidine-3-carboxamide] | 30 to 100
O=C(N[C@H](CN1CCCC1)[C@H](O)c1ccc(OC2CC2)c(Cl)c1)[C@H]1CCN(c2ccc(Cl)cn2)C1 [Compound 57A, (S)-N-((1R,2R)-1-(3-chloro-4-cyclopropoxyphenyl)-1-hydroxy-3-(pyrrolidin-1-yl)propan-2-yl)-1-(5-chloropyridin-2-yl)pyrrolidine-3-carboxamide] | 1 to 30

same assay, conditions: Table 2; class symbols D, E, F, NA (not active); the table does not say which of the assays

SMILES | Data Range (% inhibition)
CC1(C)CCc2cc([C@@H](O)[C@@H](CN3CCCC3)NC(=O)[C@H]3CCN(c4ccc(Cl)cc4)C3)ccc2O1 [Compound 51A, (S)-1-(4-chlorophenyl)-N-((1R,2R)-1-(2,2-dimethylchroman-6-yl)-1-hydroxy-3-(pyrrolidin-1-yl)propan-2-yl)pyrrolidine-3-carboxamide] | NA (not active—a negative value was generated for % inhibition)
CC(C)Oc1ccc([C@@H](O)[C@@H](CN2CCCC2)NC(=O)[C@H]2CCN(c3ccc(Cl)cc3)C2)cn1 [Compound 29B, (S)-1-(4-chlorophenyl)-N-((1R,2R)-1-hydroxy-1-(6-isopropoxypyridin-3-yl)-3-(pyrrolidin-1-yl)propan-2-yl)pyrrolidine-3-carboxamide] | F (1-49% (or less than 50%))
O=C(N[C@H](CN1CCC1)[C@H](O)c1cc(F)c2c(c1)OCCO2)[C@H]1CCN(c2ccc3cc(Cl)ccc3c2)C1 [Compound 89G, (S)-N-((1R,2R)-3-(azetidin-1-yl)-1-(8-fluoro-2,3-dihydrobenzo[b][1,4]dioxin-6-yl)-1-hydroxypropan-2-yl)-1-(6-chloronaphthalen-2-yl)pyrrolidine-3-carboxamide] | E (50-74% (or less than 75%))
O=C(N[C@H](CN1CCC1)[C@H](O)c1ccc2c(c1)OCCO2)[C@H]1CCN(c2ccc3cc(F)ccc3c2)C1 [Compound 79B, (S)-N-((1R,2R)-3-(azetidin-1-yl)-1-(2,3-dihydrobenzo[b][1,4]dioxin-6-yl)-1-hydroxypropan-2-yl)-1-(6-fluoronaphthalen-2-yl)pyrrolidine-3-carboxamide] | E (50-74% (or less than 75%))
O=C(N[C@H](CN1CCCCC1)[C@H](O)c1ccc2c(c1)OCCO2)[C@@H]1CCN(c2ccc(Cl)cc2)C1 [Compound 43, (R)-1-(4-chlorophenyl)-N-((1R,2R)-1-(2,3-dihydrobenzo[b][1,4]dioxin-6-yl)-1-hydroxy-3-(piperidin-1-yl)propan-2-yl)pyrrolidine-3-carboxamide] | F (1-49% (or less than 50%))
Cc1cc(N2CC[C@@H](C(=O)N[C@H](CN3CCCC3)[C@H](O)c3ccc4c(c3)OCCO4)C2)cc(C)n1 [Compound 82, (R)-N-((1R,2R)-1-(2,3-dihydrobenzo[b][1,4]dioxin-6-yl)-1-hydroxy-3-(pyrrolidin-1-yl)propan-2-yl)-1-(2,6-dimethylpyridin-4-yl)pyrrolidine-3-carboxamide] | NA (not active—a negative value was generated for % inhibition)
O=C(N[C@H](CN1CCCC1)[C@H](O)c1ccc2c(c1)OCCO2)C1CCN(c2ccc(OC3CC3)c(Cl)c2)C1 (stereo partly shown) [Compound 20D] | E (50-74% (or less than 75%))
O=C(N[C@H](CN1CCCC1)[C@H](O)c1ccc(OCC(F)(F)F)nc1)[C@@H]1CCN(c2ccc(F)cc2)C1 [Compound 34, (R)-1-(4-fluorophenyl)-N-((1R,2R)-1-hydroxy-3-(pyrrolidin-1-yl)-1-(6-(2,2,2-trifluoroethoxy)pyridin-3-yl)propan-2-yl)pyrrolidine-3-carboxamide] | E (50-74% (or less than 75%))
O=C(N[C@H](CN1CCCC1)[C@H](O)c1ccc2c(c1)OCCO2)[C@@H]1CCN(c2ccccn2)C1 [Compound 22, (R)-N-((1R,2R)-1-(2,3-dihydrobenzo[b][1,4]dioxin-6-yl)-1-hydroxy-3-(pyrrolidin-1-yl)propan-2-yl)-1-(pyridin-2-yl)pyrrolidine-3-carboxamide] | E (50-74% (or less than 75%))
